From US8129340B2, “Inhibitors of protein phosphatase 1, GADD34 and protein phosphatase 1/GADD34 complex, preparation and uses thereof” (Institut Gustave Roussy, priority 2006, dated 2012)

Experiments:
CRT [1] = experiment: CRT exposure on tumour cell lines of murine origin (MCA205, B16F10, J558); format: cell-based
cell surface CRT = experiment: Fluorescence detection of cell surface CRT on CT26 cells (cytofluorometry); format: cell-based, murine; settings: agent alone
Procedure: FIG. 1SA, FIG. 1SB: Kinetics of CRT exposure. CT26 cells were treated with mitoxantrone for the indicated period, followed by immunofluorescence staining with a CRT-specific antibody and cytofluorometric analysis.
FIG. 2E: Correlation between CRT exposure and immunogenicity. The surface exposure of CRT was determined by immunofluorescence cytometry while gating on viable (propidium iodine-negative) cells (inserts) and was correlated with the immunogenicity of cell death (as determined in FIG. 1). CO, control; Tg, thapsigargin; Tu, tunicamycin.
FIG. 5E: Kinetics of CRT exposure determined by FACS analysis after incubation of cells with the indicated agents.
FIG. 5F-FIG. 5G: PP1/GADD34 inhibitors render cell immunogenic via CRT. Tumour cells were first transfected with a control siRNA or a CRT-specific siRNA and then treated in vitro with etoposide, alone or in combination with PP1/GADD34 inhibitors. […] The results represent the % of tumour free mice (comprising a total of 12 to 18 mice per group).
CT26 cells (on a glass slide or in 12-well plates) were first washed with FACS buffer (1×PBS, 5% fetus bovine serum, and 0.1% sodium azide) and then incubated with rabbit anti-mouse CRT antibody (1:100, Stressgen) in FACS buffer at 4° C. for 30 min. Cells reacted with anti-rabbit IgG (H+L) Alexa fluor 488-conjugates (1:500) in FACS buffer at 4° C. for 30 min. After washing three times with FACS buffer, surface CRT was detected by cytofluorometric analysis on a FACS Vantage. In some experiments, cells were fixed with 4% paraformaldehyde, counterstained with Hoechst (2 μM; Sigma), followed by fluorescence microscopic assessment with a Leica IRE2 microscope equipped with a DC300F camera.

CT26 tumours [2] = experiment: Intratumoural treatment of established CT26 tumours in immunodeficient mice; format: in vivo, athymic nu/nu Balb/c mice; settings: for therapeutic effect of single agent on established tumours, nu/nu mice: single intratumoural injection
CT26 tumour cells [3] = experiment: Anti-tumour vaccination: dying treated CT26 cells injected in one flank, later challenge with live tumour cells; format: in vivo, BALB/c mice
CT26 tumours [4] = experiment: Intratumoural treatment of established CT26 tumours in immunocompetent mice; format: in vivo, BALB/c mice (wild type); settings: for therapeutic effect combined with a cell death inducer (etoposide or mitomycin C), immunocompetent mice: intratumoural injection with etoposide or mitomycin C; for therapeutic effect of single agent on established tumours, immunocompetent mice: single intratumoural injection, 14-day-old CT26 tumours
CRT [5] = experiment: CRT exposure on tumour cell lines of human origin (HeLa, A549, HCT116); format: cell-based
CT26 cells = experiment: Phagocytosis of CT26 tumour cells by dendritic cells (FACS, double positive cells); format: cell-based, BALB/c mice
Procedure: FIG. 3A, FIG. 3B: Correlation between tumour cell phagocytosis and CRT exposure. Tumour cells labelled with Cell Tracker Green were cultured with CD11c-expressing DC and the percentage of DC taking up tumour cells was determined (A) and correlated with the CRT surface exposure (B), measured as in FIG. 2E.
Mitoxantrone-treated or control cells were incubated with a blocking chicken anti-CRT antibody, followed by detection of phagocytosis by CD.
Cells were transfected with the indicated siRNAs and optionally treated with rCRT, followed by immunoblot (FIG. 3D) detection of surface CRT (FIG. 3E) and phagocytosis by DC (FIG. 3F). Results are triplicates (X±SD) and representative of three independent experiments. * denotes statistically significant differences using the Student t′ test at p<0.001.
BM cells were flushed from the tibias and femurs of BALB/c mice with culture medium composed of RPMI 1640 medium (Invitrogen Life Technologies) supplemented with 10% heat-inactivated FBS (Invitrogen), sodium pyruvate, 50 μM 2-ME (Sigma), 10 mM HEPES (pH 7.4), and penicillin/streptomycin (Invitrogen). After one centrifugation, BM cells were resuspended in Tris-ammonium chloride for 2 min to lyse RBC. After one more centrifugation, BM cells (1×10^6 cells/ml) were cultured in medium supplemented with 100 ng/ml recombinant mouse FLT3 ligand (R&D systems) in 6-well plates (Costar Corning). After 7 days, the non-adherent and loosely adherent cells were harvested with Versene, washed and transferred in 12-well plates (1.5×10^6 cells/plate) for cocultures with tumour cells.
In 12-well plates, […] adherent CT26 cells were labelled with Celltracker Green (Calbiochem) and then incubated with drugs. In some experiments viable CT26 were coated with 2 μg/10^6 cells of chicken anti-CRT antibody (ABR affinity bioreagents) or an isotype control for 30 min prior to washing and feeding to dendritic cells Cs. Alternatively CT26 cells were coated with 2 μg/10^6 cells of rCRT on ice for 30 min and washed twice prior to addition to dendritic cells. Cells were then harvested, washed three times with medium supplemented with FBS and cocultured with immature DC for 2 hours at a ratio of 1:1 and 1:5. At the end of the incubation, cells were harvested with versene, pooled with non-adherent cells present in the supernatant, washed and stained with CD11c-FITC antibody. Phagocytosis was assessed by FACS analysis of double positive cells. Phagocytic indexes refer to the ratio between values obtained at 4° C. and values obtained at 37° C. of co-incubation between DC and tumour cells.

ERP57 = experiment: Biotinylation of cell surface proteins, 2D gel electrophoresis and mass spectrometry (ERP57 spot); format: cell-based, murine; settings: CT26 cells, short-term (4 h) treatment
CRT [6] = experiment: Biotinylation of cell surface proteins, 2D gel electrophoresis and mass spectrometry; format: cell-based, murine; settings: CT26 cells, short-term (4 h) treatment, versus untreated
CT26 colon cancer = experiment: Intratumoural peptides with systemic mitomycin C against established CT26 colon cancer (tumor size, survival); format: in vivo, BALB/c mice; settings: 10 micrograms peptide in situ plus systemic mitomycin C
Procedure: CT26 cells were injected se in BALB/c mice. At a size of 20 mm^2, the palpable tumors were directly inoculated in situ with 10 micrograms of either of the three following peptides (see below) alone or together with a systemic treatment with mitomycin C (as described in Obeid et al. Nat Med 2007) or PBS. • 1. Cell-penetrable PP1 inhibitory peptide VKKKKIKREIKI-LKARKVRFSEKV (SEQ ID NO: 4) • 2. Cell-penetrable control peptide VKKKKIKREIKI-LKARAVRFSEKV (SEQ ID NO: 18) • 3. Cell penetration sequence VKKKKIKREIKI (SEQ ID NO: 3) alone admixed together with PP1-inhibitory peptide LKARKVRFSEKV (SEQ ID NO: 2) alone.
5 animals/group were included in this experiment.

calreticulin [7] = experiment: Calreticulin exposure by immunofluorescence staining and flow cytometry, HCT116 cells; format: cell-based, human; settings: 2 hours
Procedure: (§1) HCT116 cells (FIG. 7A) or CT26 cells (FIG. 7B) were cultured in complete mediums supplemented with 10% fetal calf serum alone or in the presence of the control peptide (VKKKKIKREIKI-lkaravafsekv) (SEQ ID NO: 17) or the PP1/GADD34 inhibitory peptide (VKKKKIKREIKI-lkarkvrfsekv, SEQ ID NO: 4. denominated PP1 peptide) for 2 hours. Cells were washed twice with PBS and fixed in PFA (4% w/v) for 5 min. Cells were stained with an antibody against calreticulin (pAb from Abeam, ab2907) at 1:200 dilution or isotype control, in staining buffer (PBS, 1% FCS) for 30 min on ice, followed by washing. An anti-rabbit Alexa fluor 488 immunoglobulin conjugate (Molecular Probes-Invitrogen) diluted at 1:500 was added for an additional 30 min on ice before washing and analysed by flow cytometry (FACScan, Becton Dickinson). Propidium Iodide (50 μg/ml, Becton Dickinson) was added to the samples to label and exclude permeabilized (dead) cells.

calreticulin [8] = experiment: Calreticulin exposure by immunofluorescence staining and flow cytometry, CT26 cells (peptide test); format: cell-based, murine; settings: 2 hours
Procedure: as §1

CT26 colon cancer cells = experiment: In vivo anti-cancer vaccination: treated tumour cells in one flank and live tumour cells in opposite flank simultaneously; parameters: species or system BALB/c mice
Procedure: FIG. 4A: In vivo anti-cancer vaccination depends on CRT. CT26 colon cancer cells were transfected with the indicated siRNAs, then treated with rCRT and/or mitoxantrone (as in FIG. 3D) and the anti-tumour response was measured by simultaneously challenging BALB/c mice with mitoxantrone treated tumour cells in one flank and untreated live tumour cells in the opposite flank.
FIG. 4D: CRT-mediated amelioration of the immune response against etoposide-treated tumour cells. CT26 cells were treated for 24 h with etoposide (or PBS) and rCRT was optionally absorbed to the cell surface (inserts), followed by simultaneous injection of the etoposide ±rCRT-treated tumour cells and live tumour cells in opposite flanks and monitoring of tumour growth.
(§2) Tumours were evaluated weekly, using a caliper.

CT26 tumour cells [9] = experiment: Local immune response: tumour cells injected into foot pad, IFN-γ secretion by draining popliteal lymph node cells (ELISA); format: in vivo, Balb/c mice
Procedure: FIG. 4B: Priming of T cell responses depending on CRT. CT26 tumour cells were left untransfected or transfected with the indicated siRNAs, then treated with medium alone, mitomycin C or mitoxantrone and injected into the right food pad of Balb/c mice. Five days later, mononuclear cells from the draining popliteal lymph nodes were challenged with freeze-thawed CT26 cells, and IFN-γ secretion was assessed at 72 hrs.
FIG. 4C: Exogenous supply of CRT enhances the immunogenicity of CRT-negative dying cells. CT26 cells lacking CRT expression after depletion of CRT with a siRNA and mitoxantrone treatment or after mitomycin treatment were coated with rCRT (inserts) and then injected in the food pad, followed by assessment of the IFN-γ secretion by cells from the draining lymph nodes as in FIG. 4B.
as §2

DC = DC maturation ex vivo; format: cell-based; settings: alone, over a large range of concentrations

O=C(/C=C/c1ccccc1)NC(NC(=S)Nc1cccc2cccnc12)C(Cl)(Cl)Cl (centres unmarked) [salubrinal]
CRT exposure on murine tumour cell lines (CRT [1]): induced CRT exposure | induction of CRT exposure at the cell surface (cell surface CRT): efficiently induced | therapeutic effect of single agent on established tumours, nu/nu mice (CT26 tumours [2]): no major therapeutic effect | induction of immunogenic cell death by the inhibitor alone (CT26 tumour cells [3]; without cell death inducer): not sufficient to induce immunogenic cell death | therapeutic effect combined with a cell death inducer (etoposide or mitomycin C), immunocompetent mice (CT26 tumours [4]): stable disease or complete tumour regression | therapeutic effect of single agent on established tumours, immunocompetent mice (CT26 tumours [4]): no major therapeutic effect | CRT exposure on human tumour cell lines (CRT [5]): induced CRT exposure

COc1cccc2c1C(=O)c1c(O)c3c(c(O)c1C2=O)C[C@@](O)(C(=O)CO)C[C@@H]3O[C@H]1C[C@H](N)[C@H](O)[C@H](C)O1 [doxorubicin]
phagocytosis of drug-treated tumour cells by DC (CT26 cells; within a few hours after treatment): acquired the property to be phagocytosed by DC quickly | surface exposure of ERP57 (ERP57): specifically induced | induction of surface CRT (factor) (CRT [6]): 6 | immunogenicity of cell death (protection against tumour growth, anti-tumour vaccination) (CT26 tumour cells [3]; dying CT26 cells treated with agent injected into one flank, live tumour cells in opposite flank 8 days later): elicited immunogenic cell death

VKKKKIKREIKI-LKARKVRFSEKV (VKKKKIKREIKILKARKVRFSEKV; Artificial sequence including a fragment of GADD34 and a translocation motif.) [SEQ ID NO:4, fragment of GADD34 fused to a plasma membrane translocation motif]
therapeutic effect of combination with mitomycin C (CT26 colon cancer): synergistic therapeutic effects | exposure of calreticulin, HCT116 cells (calreticulin [7]): capable of inducing the exposure of calreticulin | exposure of calreticulin, CT26 cells (calreticulin [8]): capable of inducing the exposure of calreticulin

B1: rCRT: recombinant CRT protein, which binds to the surface of the cells (protein, UniProt P27797 18-417, looked up)
Calreticulin: EPAVYFKEQFLDGDGWTSRWIESKHKSDFGKFVLSSGKFYGDEEKDKGLQTSQDARFYALSASFEPFSNKGQTLVVQFTVKHEQNIDCGGGYVKLFPNSLDQTDMHGDSEYNIMFGPDICGPGTKKVHVIFNYKGKNVLINKDIRCKDDEFTHLYTLIVRPDNTYEVKIDNSQVESGSLEDDWDFLPPKKIKDPDASKPEDWDERAKIDDPTDSKPEDWDKPEHIPDPDAKKPEDWDEEMDGEWEPPVIQNPEYKGEWKPRQIDNPDYKGTWIHPEIDNPEYSPDPSIYAYDNFGVLGLDLWQVKSGTIFDNFLITNDEAYAEEFGNETWGVTKAAEKQMKDKQDEEQRLKEEEEDKKRKEEEEAEDKEDDEDKDEDEEDEEDKEEDEEEDVPGQAKDEL
restoration of phagocytosis by DC in CRT-siRNA cells (CT26 cells; rCRT added to cell surface of CRT-siRNA transfected cells): could reverse the defect induced by the CRT-specific siRNA | immunogenicity of mitoxantrone-treated CT26 cells (efficacy of anti-tumour vaccination) (CT26 colon cancer cells; cells injected into the flank of Balb/c mice): this defect was restored | anti-tumour immune response to etoposide-treated cells coated with rCRT (CT26 colon cancer cells; etoposide-treated cells coated with rCRT): elicited a vigorous anti-tumour immune response in vivo | anti-cancer immune response to rCRT-coated live cells (CT26 colon cancer cells; rCRT absorbed to cell surface without prior treatment with cell death inducers): failed to elicit an anti-cancer immune response | immunogenicity of mitoxantrone-treated CT26 cells (interferon-γ production by T cells from popliteal lymph node) (CT26 tumour cells [9]; cells injected into the foot pad): this defect was restored | immunogenicity of mitomycin-treated cells coated with rCRT (IFN-γ) (CT26 tumour cells [9]; rCRT absorbed to plasma membrane of mitomycin-treated cells): greatly enhanced the immunogenicity of cells that usually fail to induce an immune response | DC maturation (DC): could not promote DC maturation ex vivo | therapeutic effect combined with a cell death inducer (etoposide or mitomycin C), immunodeficient mice (CT26 tumours [2]; intratumoural injection with etoposide or mitomycin C): not in immunodeficient | therapeutic effect of single agent on established tumours, nu/nu mice (CT26 tumours [2]): no major therapeutic effect | effect of rCRT injected into a distant site (CT26 tumours [4]; contralateral subcutaneous rCRT plus intratumoural etoposide): did not ameliorate the antitumoural effects of intratumorally injected etoposide | therapeutic effect combined with a cell death inducer (etoposide or mitomycin C), immunocompetent mice (CT26 tumours [4]): able to cause tumour regression | therapeutic effect of single agent on established tumours, immunocompetent mice (CT26 tumours [4]): no major therapeutic effect
